# Measurements from patent US6608061B2, “Bisaryl compound and medicament for cancer treatment comprising the same” (Kyoma Hakko Kogyo Co., Ltd., priority 1997, dated 2003).
# What was measured:
# HeLa S3 cells = assay: Test for growth inhibition of HeLa S3 cells; format: cell-based; conditions: Homo sapiens, HeLa S3, 72 h, HeLa S3 cells, 72 hours with test compound, Cell Proliferation Kit II; read-out: Cell growth inhibition (IC50)
# Description: Test for Growth Inhibition of Hela S3 Cells
# HeLa S3 cells prepared at 1×10^4 cells/ml in MEM culture medium containing 10% fetal bovine serum and 2 mM glutamine were added to each well of a 96-well microtiter plate (0.1 ml for each well). The cells were cultured at 37° C. in a CO2 incubator for 24 hours, and then 0.05 ml of test compound appropriately diluted with the above medium was added to each well, and then the mixture was cultured at 37° C. in a CO2 incubator for 72 hours. After the culture supernatant was removed, each well was washed with 0.1 ml of PBS buffer twice, and 0.1 ml of the aforementioned medium was added to each well again.
# Cell Proliferation Kit II (Boehringer Mennheim) was used for measurement of cell number in each well. After a coloring reaction reagent was added, the plate was warmed to 37° C. in a CO2 incubator for 3 hours. Then, absorbances at 490 nm and 655 nm were measured by a microplate reader, and a value (difference of absorbance) was calculated for each well by subtracting the absorbance at […] from the absorbance at 490 nm. By comparing the differences of absorbance for cells without treatment and cells treated with a test compound at a known concentration, a concentration of test compound which inhibited the cell growth by 50% was calculated, and the value obtained was determined as IC50. The values of RNR inhibitory activity obtained in Example 8, and the values of cell growth inhibitory activity obtained in Example 9 are shown in the following tables (the compound numbers used in the tables correspond to the compound numbers shown in the aforementioned tables).
# [1] = system: human ovary cancer A2780 cells; assay: Antineoplastic effect against human ovary cancer A2780 cells transplanted to nude mice; format: in vivo, nude mice BALB/cAJcl-nu; conditions: Mus musculus, ip, A2780 s.c. in nude mice, read-out: Antitumor activity T/C
# Description: Antineoplastic Effect Against Human Ovary Cancer A2780 Cells
# 2 mm cubes (tumor fragments of 8 mm^3) of human ovary cancer A2780 cells were subcutaneously transplanted to nude mice BALB/cAJcl-nu (CLEA JAPAN) in the abdomens. When the tumor volume reached to from 50 to 300 mm^3 after the transplantation, the mice were arbitrarily divided into groups each consisting of 5 mice, and intraperitoneally administered with a drug solution once a day for 5 days. After weighing compounds, the drug solution was prepared before use by dissolving the drug in 99.5% ethanol (final concentration: 5%, analytical grade, Kanto Kagaku) or N,N-dimethylacetamide (final concentration: 5%, analytical grade, Kanto Kagaku), adding CREMOPHOR EL (a derivative of caster oil and ethylene oxide, final concentration: 10%, Sigma Chemical) to the solution, and suspending the solution in physiological saline (Otsuka Physiological Saline for Injection, Otsuka Pharmaceutical). For evaluation of the effect, a tumor volume was calculated in accordance with Equation 1, a ratio of tumor volume (V) after the administration of drug solution to tumor volume (V0) before the administration of drug solution was calculation (V/V0), and the ratio was compared with that for the untreated group to determine T/C (Equation 2). In the table, administration dose, T/C and evaluation day are shown. [formula]
# [2] = target: T1, human RNR (purified R1 and R2 subunits) (Homo sapiens, UniProt P23921+P31350); assay: In vitro measurement of human RNR inhibitory activity (conversion of CDP to dCDP, HPLC); format: biochemical; conditions: 100 μM CDP, 37° C., 30 minutes, read-out: RNR Inhibition (IC50)
# T1 construct: made in house; host or cells: Escherichia coli BL21(λDE3)pLysS, plasmids pETR1 and pETR2 (pET3a backbone)
# T1 sequence (P23921 1-792): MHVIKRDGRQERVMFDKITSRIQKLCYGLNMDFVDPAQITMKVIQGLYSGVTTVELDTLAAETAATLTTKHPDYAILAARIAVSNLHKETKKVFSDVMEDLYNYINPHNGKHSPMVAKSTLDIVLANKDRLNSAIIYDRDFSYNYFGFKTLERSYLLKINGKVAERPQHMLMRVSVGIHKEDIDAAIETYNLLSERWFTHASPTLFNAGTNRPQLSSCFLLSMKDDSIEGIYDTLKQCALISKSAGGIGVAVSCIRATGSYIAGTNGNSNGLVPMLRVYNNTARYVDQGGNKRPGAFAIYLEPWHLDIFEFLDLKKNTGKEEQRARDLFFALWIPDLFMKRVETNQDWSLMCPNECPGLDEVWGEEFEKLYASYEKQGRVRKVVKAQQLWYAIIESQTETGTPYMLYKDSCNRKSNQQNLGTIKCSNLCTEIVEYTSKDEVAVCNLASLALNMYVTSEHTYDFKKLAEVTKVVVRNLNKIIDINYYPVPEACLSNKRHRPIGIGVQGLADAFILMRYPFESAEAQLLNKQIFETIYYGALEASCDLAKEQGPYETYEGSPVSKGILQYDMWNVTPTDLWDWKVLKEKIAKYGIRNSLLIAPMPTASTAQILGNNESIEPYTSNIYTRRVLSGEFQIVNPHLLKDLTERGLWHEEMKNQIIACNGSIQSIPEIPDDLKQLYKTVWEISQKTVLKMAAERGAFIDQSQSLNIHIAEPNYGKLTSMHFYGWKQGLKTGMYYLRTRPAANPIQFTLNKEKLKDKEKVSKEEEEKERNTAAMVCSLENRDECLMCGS
# T1 sequence (P31350 1-389): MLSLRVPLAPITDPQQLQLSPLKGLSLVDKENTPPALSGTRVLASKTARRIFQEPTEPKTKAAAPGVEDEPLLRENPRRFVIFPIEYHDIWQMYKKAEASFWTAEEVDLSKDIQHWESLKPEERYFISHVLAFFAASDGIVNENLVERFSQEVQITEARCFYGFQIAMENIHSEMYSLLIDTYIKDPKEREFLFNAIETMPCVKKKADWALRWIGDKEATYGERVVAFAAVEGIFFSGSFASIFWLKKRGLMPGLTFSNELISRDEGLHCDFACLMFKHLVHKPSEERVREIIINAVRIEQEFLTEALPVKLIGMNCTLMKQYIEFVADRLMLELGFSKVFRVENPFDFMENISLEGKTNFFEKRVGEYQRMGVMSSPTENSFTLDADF
IC50 (HeLa S3 cells),IC50 [2],SMILES,"response vs control in vivo at 250 mg/kg/day ([1]; 96 h, 250 mg/kg/day intraperitoneally once a day for 5 days, evaluation day 4)","response vs control in vivo at 500 mg/kg/day ([1]; 168 h, 500 mg/kg/day intraperitoneally once a day for 5 days, evaluation day 7)"
14.5 µM,2.27 µM,Oc1ccc(SCCSc2ccc(O)cc2)cc1 [Compound 133],,
1.23 µM,0.29 µM,CC(=O)CN(CCSc1ccc(O)cc1)CCSc1ccc(O)cc1 [Compound 81],,
4.66 µM,1.46 µM,Oc1ccc(SCCN(CCSc2ccc(O)cc2)Cc2cccs2)cc1 [Compound 89],,
3.68 µM,0.09 µM,O=C(N1CCOCC1)N(CCSc1ccc(O)cc1)CCSc1ccc(O)cc1 [Compound 124],,
1.71 µM,1.05 µM,O=CN(CCSc1ccc(O)cc1)CCSc1ccc(O)cc1 [Compound 53],,
6.02 µM,0.43 µM,Oc1ccc(SCCCCSc2ccc(O)cc2)cc1 [Compound 135],,
2 µM,0.82 µM,C=CCN(CCSc1ccc(O)cc1)CCSc1ccc(O)cc1 [Compound 74],,
4.63 µM,0.48 µM,CC(=O)N(CCSc1ccc(O)cc1)CCSc1ccc(O)cc1 [Compound 54],,
5.17 µM,2.95 µM,CC(=O)NCCN(CCSc1ccc(O)cc1)CCSc1ccc(O)cc1 [Compound 83],,
1.3 µM,1.42 µM,NC(=O)NCCN(CCSc1ccc(O)cc1)CCSc1ccc(O)cc1 [Compound 82],,
6.14 µM,4.14 µM,O=C(c1ccccn1)N(CCSc1ccc(O)cc1)CCSc1ccc(O)cc1 [Compound 115],,
5.8 µM,2.79 µM,Oc1ccc(SCCN(CCSc2ccc(O)cc2)Cc2cccnc2)cc1 [Compound 99],,
2.57 µM,1.01 µM,CSCCN(CCSc1ccc(O)cc1)CCSc1ccc(O)cc1 [Compound 87],,
2.74 µM,3.44 µM,O=C(c1ccccc1)N(CCSc1ccc(O)cc1)CCSc1ccc(O)cc1 [Compound 114],,
15 µM,3.36 µM,Oc1ccc(SCCN(CCSc2ccc(O)cc2)Cc2ccccc2)cc1 [Compound 98],,
4.55 µM,0.91 µM,O=C(N1CCCCC1)N(CCSc1ccc(O)cc1)CCSc1ccc(O)cc1 [Compound 125],,
1.61 µM,0.6 µM,C#CCN(CCSc1ccc(O)cc1)CCSc1ccc(O)cc1 [Compound 73],,
1.71 µM,0.87 µM,O=C(CN(CCSc1ccc(O)cc1)CCSc1ccc(O)cc1)NCCO [Compound 207],,
42.6 µM,1.87 µM,N=C(N)NCCN(CCSc1ccc(O)cc1)CCSc1ccc(O)cc1 [Compound 202],,

# Continued, compound first:
SMILES,IC50 (HeLa S3 cells),IC50 [2],"response vs control in vivo at 250 mg/kg/day ([1]; 96 h, 250 mg/kg/day intraperitoneally once a day for 5 days, evaluation day 4)","response vs control in vivo at 500 mg/kg/day ([1]; 168 h, 500 mg/kg/day intraperitoneally once a day for 5 days, evaluation day 7)"
CC(=O)Oc1ccc(SCCN(CCSc2ccc(OC(C)=O)cc2)CC(N)=O)cc1 [Compound 193],0.36 µM,,46%,
Oc1ccc(SCCOCOCCSc2ccc(O)cc2)cc1 [Compound 162],3.7 µM,1.7 µM,,
O=C(NCCCSc1ccc(O)cc1)C1(C(=O)NCCCSc2ccc(O)cc2)CCCC1 [Compound 192],4.51 µM,2.85 µM,,
CC1(C)OCC(CN(CCSc2ccc(O)cc2)CCSc2ccc(O)cc2)O1 (stereo not drawn) [Compound 200],4.13 µM,4.2 µM,,
OC[C@@H]1OC(N(CCSc2ccc(O)cc2)CCSc2ccc(O)cc2)[C@H](O)[C@H](O)[C@H]1O (stereo partly drawn) [Compound 218],23.2 µM,4.97 µM,,
NC(=O)[C@H]1OC(N(CCSc2ccc(O)cc2)CCSc2ccc(O)cc2)[C@H](O)[C@@H](O)[C@@H]1O (stereo partly drawn) [Compound 219],25.2 µM,3.51 µM,,
Oc1ccc(SCCCCCCSc2ccc(O)cc2)cc1 [Compound 137],5.45 µM,0.87 µM,,
CC[N+](CC)(CC)CCCN(CCSc1ccc(O)cc1)CCSc1ccc(O)cc1 [Compound 213],180 µM,2.06 µM,,
Oc1ccc(SSc2ccc(O)cc2)cc1 [Compound 131],128 µM,6.59 µM,,
Oc1ccc(SCCOCCOCCOCCSc2ccc(O)cc2)cc1 [Compound 171],30 µM,8.01 µM,,
Oc1ccc(SCCOCCOCCOCCOCCOCCSc2ccc(O)cc2)cc1 [Compound 173],12.9 µM,3.63 µM,,
CCN(CC)CCN(CCSc1ccc(O)cc1)CCSc1ccc(O)cc1 [Compound 109],38.9 µM,2.36 µM,,
Oc1ccc(SCc2cccc(CSc3ccc(O)cc3)n2)cc1 [Compound 1],5.15 µM,4.26 µM,,
O=C(NCCCSc1ccc(O)cc1)C1C2C=CC(C2)C1C(=O)NCCCSc1ccc(O)cc1 (stereo not drawn) [Compound 191],4.78 µM,1.36 µM,,
Oc1ccc(SCCOCCOCCSc2ccc(O)cc2)cc1 [Compound 163],5.17 µM,2.1 µM,,
CC(C)(CSc1ccc(O)cc1)C(=O)N1CCN(C(=O)C(C)(C)CSc2ccc(O)cc2)CC1 [Compound 227],,,,53%
N#CCCN(CCC#N)C(=O)CN(CCSc1ccc(O)cc1)CCSc1ccc(O)cc1 [Compound 204],3.38 µM,1.5 µM,,
Oc1ccc(SCSCSc2ccc(O)cc2)cc1 [Compound 158],12.7 µM,1.42 µM,,
Oc1ccc(SCCCCCSc2ccc(O)cc2)cc1 [Compound 136],9.14 µM,0.69 µM,,
Oc1ccc(SCCN(CCSc2ccc(O)cc2)CCN2CCCCC2)cc1 [Compound 111],11.4 µM,1.85 µM,,
OC[C@H]1OC(N(CCSc2ccc(O)cc2)CCSc2ccc(O)cc2)[C@H](O)[C@@H](O)[C@@H]1O (stereo partly drawn) [Compound 215],12.7 µM,3.68 µM,,
Oc1ccc(SCCCCCCCSc2ccc(O)cc2)cc1 [Compound 138],18.3 µM,2.29 µM,,
Oc1ccc(SCCN(CCSc2ccc(O)cc2)CC2OCCO2)cc1 [Compound 88],3.22 µM,1.79 µM,,
O=C1CCC(=O)N1CCN(CCSc1ccc(O)cc1)CCSc1ccc(O)cc1 [Compound 86],3.78 µM,3.14 µM,,
CC(CSc1ccc(O)cc1)Sc1ccc(O)cc1 (stereo not drawn) [Compound 152],18 µM,5.14 µM,,
